From US20260055079A1, “PHTHALAZINONE COMPOUNDS AS PARP7 INHIBITORS” (AZKARRA THERAPEUTICS, INC., priority 2022, published 2026)

target: His-GST-PARP7 (Homo sapiens (Human), UniProt Q7Z3E1); test: PARP7 biochemical assay; conditions: read-out: PARP7 IC50
Sequence (Q7Z3E1 whole entry): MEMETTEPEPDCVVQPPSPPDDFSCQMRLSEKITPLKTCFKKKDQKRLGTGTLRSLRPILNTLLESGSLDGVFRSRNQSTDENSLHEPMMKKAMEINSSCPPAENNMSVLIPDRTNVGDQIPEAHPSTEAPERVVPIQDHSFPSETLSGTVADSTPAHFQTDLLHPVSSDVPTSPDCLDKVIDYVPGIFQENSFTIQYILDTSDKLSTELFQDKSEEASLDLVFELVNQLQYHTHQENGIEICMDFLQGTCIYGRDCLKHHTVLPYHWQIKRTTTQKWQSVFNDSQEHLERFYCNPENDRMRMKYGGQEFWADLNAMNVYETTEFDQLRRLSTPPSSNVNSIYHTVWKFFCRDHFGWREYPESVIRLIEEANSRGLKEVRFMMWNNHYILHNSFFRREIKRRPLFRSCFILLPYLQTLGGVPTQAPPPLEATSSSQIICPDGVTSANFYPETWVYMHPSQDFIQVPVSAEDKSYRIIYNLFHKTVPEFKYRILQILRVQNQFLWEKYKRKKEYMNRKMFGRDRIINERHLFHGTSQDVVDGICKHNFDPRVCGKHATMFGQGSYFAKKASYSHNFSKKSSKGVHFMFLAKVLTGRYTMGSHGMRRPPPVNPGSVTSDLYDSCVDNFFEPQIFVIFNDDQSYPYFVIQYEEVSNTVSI

Row | SMILES | IC50
1 | N#Cc1ccc(N2CCN(C(=O)c3cc(Cc4n[nH]c(=O)c5ccc(Oc6ccc7ccccc7c6)cc45)ccc3F)CC2)nc1 [Example 39, 6-(4-(2-Fluoro-5-((7-(naphthalen-2-yloxy)-4-oxo-3,4-dihydrophthalazin-1-yl)methyl)benzoyl)piperazin-1-yl)nicotinonitrile] | 50 to 100 nM
2 | N#Cc1ccc(N2CC3CCC2CN3C(=O)c2cc(Cc3n[nH]c(=O)c4ccc(OC5CCC5)cc34)ccc2F)nc1 (centres unmarked) [Example 143, 6-(5-(5-((7-cyclobutoxy-4-oxo-3,4-dihydrophthalazin-1-yl)methyl)-2-fluorobenzoyl)-2,5-diazabicyclo[2.2.2]octan-2-yl)nicotinonitrile] | 50 to 100 nM
3 | Cc1cccc(Oc2ccc3c(=O)[nH]nc(Cc4ccc(F)c(C(=O)N5CCN(c6ccc(C#N)cn6)CC5)c4)c3c2)c1 [Example 90, 6-(4-(2-fluoro-5-((4-oxo-7-(m-tolyloxy)-3,4-dihydrophthalazin-1-yl)methyl)benzoyl)piperazin-1-yl)nicotinonitrile] | < 50 nM
4 | N#Cc1ccnc(N2CCN(C(=O)c3cc(Cc4n[nH]c(=O)c5ccc(OC6CCC6)cc45)ccc3F)CC2)c1 [Example 95, 2-(4-(5-((7-Cyclobutoxy-4-oxo-3,4-dihydrophthalazin-1-yl)methyl)-2-fluorobenzoyl)piperazin-1-yl)isonicotinonitrile] | < 50 nM
5 | CC#Cc1ccc2c(=O)[nH]nc(Cc3ccc(F)c(C(=O)N4C[C@@H]5C[C@H]4CN5c4ccc(C#N)cn4)c3)c2c1 [Example 68, 6-((1S,4S)-5-(2-fluoro-5-((4-oxo-7-(prop-1-ynyl)-3,4-dihydrophthalazin-1-yl)methyl)benzoyl)-2,5-diazabicyclo[2.2.1]heptan-2-yl)nicotinonitrile] | 500 to 2000 nM
6 | CN(c1cncc(C#N)n1)C1CN(C(=O)c2cc(Cc3n[nH]c(=O)c4ccc(OC5CCC5)cc34)ccc2F)C1 [Example 116, 6-((1-(5-((7-Cyclobutoxy-4-oxo-3,4-dihydrophthalazin-1-yl)methyl)-2-fluorobenzoyl)azetidin-3-yl)(methyl)amino)pyrazine-2-carbonitrile] | 100 to 500 nM
7 | O=C(c1ccc(Cl)c(Cc2n[nH]c(=O)c3ccc(OC4CCC4)cc23)c1)N1CCN(c2ncc(C(F)(F)F)cn2)CC1 [Example 173, 4-(2-Chloro-5-(4-(5-(trifluoromethyl)pyrimidin-2-yl)piperazine-1-carbonyl)benzyl)-6-cyclobutoxyphthalazin-1(2H)-one] | 500 to 2000 nM
8 | O=C(c1cc(Cc2n[nH]c(=O)c3ccc(OC4CCC4)cc23)ccc1F)N1CCn2c(CO)nnc2C1 [Example 166, 6-Cyclobutoxy-4-(4-fluoro-3-(3-(hydroxymethyl)-5,6,7,8-tetrahydro-[1,2,4]triazolo[4,3-a]pyrazine-7-carbonyl)benzyl)phthalazin-1(2H)-one] | < 50 nM
9 | O=C(c1cc(Cc2n[nH]c(=O)c3ccc(OC4CCC4)cc23)ccc1F)N1C[C@@H]2CC[C@H]1CN2C(=O)C1CC1 (stereo in doubt) [Example 142, 6-Cyclobutoxy-4-(3-(5-(cyclopropanecarbonyl)-2,5-diazabicyclo[2.2.2]octane-2-carbonyl)-4-fluorobenzyl)phthalazin-1(2H)-one] | 100 to 500 nM
10 | N#Cc1ccc(NC2CN(C(=O)c3cc(Cc4n[nH]c(=O)c5ccc(OC6CCC6)cc45)ccc3F)C2)nc1 [Example 104, 6-((1-(5-((7-Cyclobutoxy-4-oxo-3,4-dihydrophthalazin-1-yl)methyl)-2-fluorobenzoyl)azetidin-3-yl)amino)nicotinonitrile] | 50 to 100 nM
11 | N#Cc1ccc(N2CCN(C(=O)c3cc(Cc4n[nH]c(=O)c5ccc(N6CC7(C6)CC(F)(F)C7)cc45)ccc3F)CC2)nc1 [Example 35, 6-(4-(5-((7-(6,6-Difluoro-2-azaspiro[3.3]heptan-2-yl)-4-oxo-3,4-dihydrophthalazin-1-yl)methyl)-2-fluorobenzoyl)piperazin-1-yl)nicotinonitrile] | 50 to 100 nM
12 | CN(c1nccc(C(F)(F)F)n1)C1CN(C(=O)c2cc(Cc3n[nH]c(=O)c4ccc(OC5CCC5)cc34)ccc2F)C1 [Example 120, 6-cyclobutoxy-4-(4-fluoro-3-(3-(methyl(4-(trifluoromethyl)pyrimidin-2-yl)amino)azetidine-1-carbonyl)benzyl) phthalazin-1(2H)-one] | 500 to 2000 nM
13 | O=c1[nH]nc(Cc2ccc3c(N4CCN(c5ncc(C(F)(F)F)cn5)CC4)noc3c2)c2cc(OC3CCC3)ccc12 [Example 212, 6-Cyclobutoxy-4-((3-(4-(5-(trifluoromethyl)pyrimidin-2-yl)piperazin-1-yl)benzo[d]isoxazol-6-yl)methyl)phthalazin-1(2H)-one] | > 2000 nM
14 | COc1nnc2n1CCN(C(=O)c1cc(Cc3n[nH]c(=O)c4ccc(OC5CCC5)cc34)ccc1F)C2 [Example 165, 6-Cyclobutoxy-4-(4-fluoro-3-(3-methoxy-5,6,7,8-tetrahydro-[1,2,4]triazolo[4,3-a]pyrazine-7-carbonyl)benzyl)phthalazin-1(2H)-one] | < 50 nM
15 | CC#Cc1ccc2c(=O)[nH]nc(Cc3ccc(F)c(C(=O)N4CCN(C(=O)CCC(F)(F)F)CC4)c3)c2c1 [Example 57, 4-(4-Fluoro-3-(4-(4,4,4-trifluorobutanoyl)piperazine-1-carbonyl)benzyl)-6-(prop-1-ynyl)phthalazin-1(2H)-one] | < 50 nM
16 | O=C(NC1CN(C(=O)c2cc(Cc3n[nH]c(=O)c4ccc(OC5CCC5)cc34)ccc2F)C1)C1CC1 [Example 113, N-(1-(5-((7-Cyclobutoxy-4-oxo-3,4-dihydrophthalazin-1-yl)methyl)-2-fluorobenzoyl)azetidin-3-yl)cyclopropanecarboxamide] | 100 to 500 nM
17 | N#Cc1ccc(N2C[C@H]3C[C@@H]2CN3C(=O)c2cccc(Cc3n[nH]c(=O)c4ccc(-c5cccnc5)cc34)c2)nc1 (stereo in doubt) [Example 184, 6-(5-(3-((4-Oxo-7-(pyridin-3-yl)-3,4-dihydrophthalazin-1-yl)methyl)benzoyl)-2,5-diazabicyclo[2.2.1]heptan-2-yl)nicotinonitrile] | 100 to 500 nM
18 | O=C(c1cc(Cc2n[nH]c(=O)c3ccc(OC4CCC4)cc23)ccc1F)N1CCn2c(nnc2C(F)F)C1 [Example 163, 6-Cyclobutoxy-4-(3-(3-(difluoromethyl)-5,6,7,8-tetrahydro-[1,2,4]triazolo[4,3-a]pyrazine-7-carbonyl)-4-fluorobenzyl)phthalazin-1(2H)-one] | < 50 nM
19 | CC#Cc1ccc2c(=O)[nH]nc(Cc3ccc(F)c(C(=O)N4CCn5c(nnc5-c5ccccc5CC)C4)c3)c2c1 [Example 59, 4-(3-(3-(2-Ethylphenyl)-5,6,7,8-tetrahydro-[1,2,4]triazolo[4,3-a]pyrazine-7-carbonyl)-4-fluorobenzyl)-6-(prop-1-ynyl)phthalazin-1(2H)-one] | 100 to 500 nM
20 | N#Cc1ccnc(NC2CN(C(=O)c3cc(Cc4n[nH]c(=O)c5ccc(OC6CCC6)cc45)ccc3F)C2)c1 [Example 106, 2-(1-(5-((7-Cyclobutoxy-4-oxo-3,4-dihydrophthalazin-1-yl)methyl)-2-fluorobenzoyl)azetidin-3-ylamino)isonicotinonitrile] | 100 to 500 nM
21 | CC#Cc1ccc2c(=O)[nH]nc(Cc3ccc(F)c(C(=O)N4CCN(c5ncc(C)n5C)CC4)c3)c2c1 [Example 79, 4-(3-(4-(1,5-Dimethyl-1H-imidazol-2-yl)piperazine-1-carbonyl)-4-fluorobenzyl)-6-(prop-1-ynyl)phthalazin-1(2H)-one] | 100 to 500 nM
22 | CN(c1cc(C#N)ccn1)C1CN(S(=O)(=O)c2cc(Cc3n[nH]c(=O)c4ccc(OC5CCC5)cc34)ccc2F)C1 [Example 189, 2-((1-((5-((7-cyclobutoxy-4-oxo-3,4-dihydrophthalazin-1-yl)methyl)-2-fluorophenyl)sulfonyl)azetidin-3-yl)(methyl)amino)isonicotinonitrile] | 500 to 2000 nM
23 | O=C(c1ccc(Cc2n[nH]c(=O)c3ccc(OC4CCC4)cc23)cc1F)N1CCN(c2ncc(C(F)(F)F)cn2)CC1 [Example 172, 6-Cyclobutoxy-4-(3-fluoro-4-(4-(5-(trifluoromethyl)pyrimidin-2-yl)piperazine-1-carbonyl)benzyl)phthalazin-1(2H)-one] | > 2000 nM
24 | O=C(C1CC1)N1CCN(c2noc3c(Cc4n[nH]c(=O)c5ccc(OC6CCC6)cc45)cccc23)CC1 [Example 206, 6-Cyclobutoxy-4-((3-(4-(cyclopropanecarbonyl)piperazin-1-yl)benzo[d]isoxazol-7-yl)methyl)phthalazin-1(2H)-one] | 100 to 500 nM
25 | O=C(c1cc(Cc2n[nH]c(=O)c3ccc(OC4CCC4)cc23)ccc1F)N1C[C@H]2CC[C@@H](C1)N2c1ncc(C(F)(F)F)cn1 [Example 100, 6-Cyclobutoxy-4-(4-fluoro-3-(8-(5-(trifluoromethyl)pyrimidin-2-yl)-3,8-diazabicyclo[3.2.1]octane-3-carbonyl)benzyl)phthalazin-1(2H)-one] | < 50 nM
26 | CC#Cc1ccc2c(=O)[nH]nc(Cc3ccc(F)c(C(=O)N4CCN(c5cncc(C#N)n5)CC4)c3)c2c1 [Example 55, 6-(4-(2-Fluoro-5-((4-oxo-7-(prop-1-ynyl)-3,4-dihydrophthalazin-1-yl)methyl)benzoyl)piperazin-1-yl)pyrazine-2-carbonitrile] | 100 to 500 nM
27 | O=C(c1cc(Cc2n[nH]c(=O)c3ccc(OC4CCC4)cc23)ccc1F)N1[C@@H]2CC[C@H]1CN(c1ncc(C(F)(F)F)cn1)C2 [Example 97, 6-cyclobutoxy-4-(4-fluoro-3-(3-(5-(trifluoromethyl)pyrimidin-2-yl)-3,8-diazabicyclo[3.2.1]octane-8-carbonyl)benzyl)phthalazin-1(2H)-one] | < 50 nM
28 | N#Cc1ccc(N2CCN(C(=O)c3cc(Cc4n[nH]c(=O)c5ccc(Oc6ccccn6)cc45)ccc3F)CC2)nc1 [Example 38, 6-(4-(2-Fluoro-5-((4-oxo-7-(pyridin-2-yloxy)-3,4-dihydrophthalazin-1-yl)methyl)benzoyl)piperazin-1-yl)nicotinonitrile] | < 50 nM
29 | CNC(=O)c1ccnc(N(C)C2CN(C(=O)c3cc(Cc4n[nH]c(=O)c5ccc(OC6CCC6)cc45)ccc3F)C2)n1 [Example 108, 2-((1-(5-((7-cyclobutoxy-4-oxo-3,4-dihydrophthalazin-1-yl)methyl)-2-fluorobenzoyl)azetidin-3-yl)(methyl)amino)-N-methylpyrimidine-4-carboxamide] | 100 to 500 nM
